{
  "source": "ChEMBL document CHEMBL1135216",
  "about": "“New 2-(1-adamantylcarbonyl)pyridine and 1-acetyladamantane thiosemicarbazones-thiocarbonohydrazones: cell growth inhibitory, antiviral and antimicrobial activity evaluation” (Bioorg Med Chem Lett, 2002)",
  "key": {"E6SM [1]": {"test_system": "E6SM", "test": "Tested for antiviral activity against VSV-virus in human embryonic skin muscle fibroblasts", "assay_type": "functional", "details": "Muscle tissue"}, "E6SM [2]": {"test_system": "E6SM", "test": "Tested for antiviral activity against herpes simplex virus type 1(KOS) in E6SM cell line(human embryonic skin-muscle fibroblasts)", "assay_type": "functional"}, "E6SM [3]": {"test_system": "E6SM", "test": "Tested for antiviral activity against thymidine kinase-deficient (TK-HSV-2G) virus in E6SM cell line(human embryonic skin-muscle fibroblasts)", "assay_type": "functional"}, "E6SM [4]": {"test_system": "E6SM", "test": "Tested for antiviral activity against vaccinia virus in human embryonic skin muscle fibroblast", "assay_type": "functional", "details": "Muscle tissue"}, "E6SM [5]": {"test_system": "E6SM", "test": "The compound was tested for antiviral activity against thymidine kinase-deficient (TK-HSV-1)virus in E6SM cell line(human embryonic skin-muscle fibroblasts)", "assay_type": "functional"}, "E6SM [6]": {"test_system": "E6SM", "test": "Tested for cytotoxic activity in human embryonic skin muscle fibroblast (E6SM)", "assay_type": "functional", "details": "Muscle tissue"}, "HEL [7]": {"test_system": "HEL", "test": "Tested for cytotoxic activity in human embryonic lung fibroblast (HEL)", "assay_type": "functional"}, "HEL [8]": {"test_system": "HEL", "test": "Tested for antiviral activity against thymidine kinase wild type Varicella zoster virus in human embryonic lung fibroblast", "assay_type": "functional"}, "HEL [9]": {"test_system": "HEL", "test": "Tested for antiviral activity against thymidine kinase deficient Varicella zoster virus in human embryonic lung fibroblasts"}, "HeLa [10]": {"test_system": "HeLa", "test": "The compound was tested for antiviral activity against VSV-virus in human epithelial cells", "assay_type": "functional"}, "Escherichia coli [11]": {"test_system": "Escherichia coli", "test": "Tested for the antimicrobial activity minimum inhibitory concentration) against Escherichia coli", "assay_type": "functional"}, "HeLa [12]": {"test_system": "HeLa", "test": "Tested for antiviral activity against coxsackie-B4 virus in human epithelial cell line", "assay_type": "functional"}, "HeLa [13]": {"test_system": "HeLa", "test": "Tested for cytotoxic activity in human epithelial cell line (HeLa)", "assay_type": "functional"}, "Klebsiella pneumoniae [14]": {"test_system": "Klebsiella pneumoniae", "test": "Tested for the antimicrobial activity minimum inhibitory concentration) against Klebsiella pneumoniae", "assay_type": "functional"}, "Staphylococcus hominis [15]": {"test_system": "Staphylococcus hominis", "test": "Tested for the antimicrobial activity minimum inhibitory concentration) against Staphylococcus hominis", "assay_type": "functional"}, "Vero [16]": {"test_system": "Vero", "test": "Tested for cytotoxic activity in African green monkey kidney cells (Vero)", "assay_type": "functional", "details": "Chlorocebus sabaeus"}, "Vero [17]": {"test_system": "Vero", "test": "Tested for antiviral activity against Punta toro virus in African green monkey kidney cell (Vero)", "assay_type": "functional", "details": "Chlorocebus sabaeus"}, "Vero [18]": {"test_system": "Vero", "test": "Tested for antiviral activity against Reo-1 virus in African green monkey kidney cell (Vero)", "assay_type": "functional", "details": "Chlorocebus sabaeus"}, "Vero [19]": {"test_system": "Vero", "test": "Tested for antiviral activity against Sindbis virus in African green monkey kidney cell (Vero)", "assay_type": "functional", "details": "Chlorocebus sabaeus"}, "Vero [20]": {"test_system": "Vero", "test": "Tested for antiviral activity against coxsackie B-4 virus in African green monkey kidney cell (Vero)", "assay_type": "functional", "details": "Chlorocebus sabaeus"}, "Vero [21]": {"test_system": "Vero", "test": "Tested for antiviral activity against parainfluenza virus in african green monkey kidney cell (Vero)", "assay_type": "functional", "details": "Chlorocebus sabaeus"}, "Escherichia coli [22]": {"test_system": "Escherichia coli", "test": "Tested for the antimicrobial activity as minimum inhibitory concentration against Escherichia coli ATCC 25922", "assay_type": "functional"}, "Klebsiella pneumoniae [23]": {"test_system": "Klebsiella pneumoniae", "test": "Tested for the antimicrobial activity as minimum inhibitory concentration against Klebsiella pneumoniae ATCC 13883", "assay_type": "functional"}, "Staphylococcus aureus": {"test_system": "Staphylococcus aureus", "test": "Tested for the antimicrobial activity as minimum inhibitory concentration against Staphylococcus aureus ATCC 6538", "assay_type": "functional"}, "[24]": {"test_system": "Staphylococcus epidermidis", "test": "Tested for the antimicrobial activity as minimum inhibitory concentration against Staphylococcus epidermidis ATCC 12228", "assay_type": "functional"}, "Staphylococcus hominis [25]": {"test_system": "Staphylococcus hominis", "test": "Tested for the antimicrobial activity as minimum inhibitory concentration against Staphylococcus hominis ATCC 27844", "assay_type": "functional"}, "MT4 [26]": {"test_system": "MT4", "test": "The compound was tested for effective concentration required to protect MT-4 cells against the cytopathicity of HIV-1(IIIB)", "assay_type": "functional, cell-based", "details": "Homo sapiens"}, "MT4 [27]": {"test_system": "MT4", "test": "The compound was tested for effective concentration required to protect MT-4 cells against the cytopathicity of HIV-2(ROD)", "assay_type": "functional, cell-based", "details": "Homo sapiens"}, "MT4 [28]": {"test_system": "MT4", "test": "The compound was tested for cytotoxic concentration required to reduce the viability of MT-4 cells", "assay_type": "functional", "details": "Homo sapiens"}},
  "data": [
    {"compound": "Nc1nc2c(ncn2COCCO)c(=O)[nH]1", "note": "[ACYCLOVIR]", "values": [
      {"measurement": "MIC", "setting": "E6SM [1]", "value": 48, "unit": "µg/mL"},
      {"measurement": "MIC", "setting": "E6SM [2]", "value": 0.08, "unit": "µg/mL"},
      {"measurement": "MIC", "setting": "E6SM [3]", "value": 0.08, "unit": "µg/mL"},
      {"measurement": "MIC", "setting": "E6SM [4]", "value": "> 400", "unit": "µg/mL"},
      {"measurement": "MIC", "setting": "E6SM [5]", "value": 48, "unit": "µg/mL"},
      {"measurement": "MCC", "setting": "E6SM [6]", "value": "> 400", "unit": "µg/mL"},
      {"measurement": "MCC", "setting": "HEL [7]", "value": "> 50", "unit": "µg/mL"},
      {"measurement": "MIC", "setting": "HEL [8]", "value": 1.1, "unit": "µg/mL"},
      {"measurement": "MIC", "setting": "HEL [9]", "value": 12.3, "unit": "µg/mL"}
    ]},
    {"compound": "NC(=O)c1ncn([C@@H]2O[C@H](CO)[C@@H](O)[C@H]2O)n1", "note": "[RIBAVIRIN]", "values": [
      {"measurement": "MIC", "setting": "E6SM [1]", "value": 400, "unit": "µg/mL"},
      {"measurement": "MIC", "setting": "E6SM [4]", "value": 240, "unit": "µg/mL"},
      {"measurement": "MIC", "setting": "HeLa [10]", "value": 240, "unit": "µg/mL"},
      {"measurement": "MCC", "setting": "E6SM [6]", "value": "> 400", "unit": "µg/mL"},
      {"measurement": "MIC", "setting": "Escherichia coli [11]", "value": "> 400", "unit": "µg/mL"},
      {"measurement": "MIC", "setting": "HeLa [12]", "value": 48, "unit": "µg/mL"},
      {"measurement": "MCC", "setting": "HeLa [13]", "value": "> 400", "unit": "µg/mL"},
      {"measurement": "MIC", "setting": "Klebsiella pneumoniae [14]", "value": "> 400", "unit": "µg/mL"},
      {"measurement": "MIC", "setting": "Staphylococcus hominis [15]", "value": "> 400", "unit": "µg/mL"},
      {"measurement": "MCC", "setting": "Vero [16]", "value": "> 400", "unit": "µg/mL"},
      {"measurement": "MIC", "setting": "Vero [17]", "value": 16, "unit": "µg/mL"},
      {"measurement": "MIC", "setting": "Vero [18]", "value": 80, "unit": "µg/mL"},
      {"measurement": "MIC", "setting": "Vero [19]", "value": 80, "unit": "µg/mL"},
      {"measurement": "MIC", "setting": "Vero [20]", "value": 240, "unit": "µg/mL"},
      {"measurement": "MCC", "setting": "Vero [21]", "value": 48, "unit": "µg/mL"}
    ]},
    {"compound": "CN[C@@H]1[C@H](O[C@H]2[C@H](O[C@H]3[C@H](O)[C@@H](O)[C@H](N=C(N)N)[C@@H](O)[C@@H]3N=C(N)N)O[C@@H](C)[C@]2(O)C=O)O[C@@H](CO)[C@H](O)[C@H]1O", "note": "[STREPTOMYCIN]", "values": [
      {"measurement": "MIC", "setting": "Escherichia coli [22]", "value": 0.6, "unit": "µg/mL"},
      {"measurement": "MIC", "setting": "Klebsiella pneumoniae [23]", "value": 0.6, "unit": "µg/mL"},
      {"measurement": "MIC", "setting": "Staphylococcus aureus", "value": 2.1, "unit": "µg/mL"},
      {"measurement": "MIC", "setting": "[24]", "value": 2.1, "unit": "µg/mL"},
      {"measurement": "MIC", "setting": "Staphylococcus hominis [25]", "value": 2.1, "unit": "µg/mL"}
    ]},
    {"compound": "Cc1cn([C@H]2C[C@H](N=[N+]=[N-])[C@@H](CO)O2)c(=O)[nH]c1=O", "note": "[ZIDOVUDINE]", "values": [
      {"measurement": "EC50", "setting": "MT4 [26]", "value": 6.4, "unit": "nM"},
      {"measurement": "EC50", "setting": "MT4 [27]", "value": 6, "unit": "nM"},
      {"measurement": "CC50", "setting": "MT4 [28]", "value": "> 500000", "unit": "nM"}
    ]}
  ]
}
